{
  "source": "patent EP1824830B1",
  "about": "“RADIOLABELLED QUINOLINE-BASED LIGANDS FOR THE 5-HT6 RECEPTOR FUNCTIONALITY” (GLAXO GROUP LIMITED, priority 2004, dated 2006)",
  "key": {"5-HT1B": {"target": "5-HT1B (Homo sapiens, UniProt P28222)", "sequence (P28222 whole entry, species assumed)": "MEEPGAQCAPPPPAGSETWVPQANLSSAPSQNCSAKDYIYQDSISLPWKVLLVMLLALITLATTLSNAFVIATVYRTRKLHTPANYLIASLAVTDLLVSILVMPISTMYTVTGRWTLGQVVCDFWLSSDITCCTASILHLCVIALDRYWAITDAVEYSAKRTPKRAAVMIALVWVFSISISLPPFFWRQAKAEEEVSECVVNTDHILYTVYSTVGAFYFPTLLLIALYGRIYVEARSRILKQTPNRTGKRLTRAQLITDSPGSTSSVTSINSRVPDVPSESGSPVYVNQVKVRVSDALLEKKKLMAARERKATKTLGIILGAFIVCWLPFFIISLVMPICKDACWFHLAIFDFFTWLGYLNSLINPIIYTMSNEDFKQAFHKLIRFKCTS", "assay": "Binding profile", "text": "(§1) Table 1. Binding Profile (pKi values) of GSK215083"}, "5-HT1D": {"target": "5-HT1D (Homo sapiens, UniProt P28221)", "sequence (P28221 whole entry, species assumed)": "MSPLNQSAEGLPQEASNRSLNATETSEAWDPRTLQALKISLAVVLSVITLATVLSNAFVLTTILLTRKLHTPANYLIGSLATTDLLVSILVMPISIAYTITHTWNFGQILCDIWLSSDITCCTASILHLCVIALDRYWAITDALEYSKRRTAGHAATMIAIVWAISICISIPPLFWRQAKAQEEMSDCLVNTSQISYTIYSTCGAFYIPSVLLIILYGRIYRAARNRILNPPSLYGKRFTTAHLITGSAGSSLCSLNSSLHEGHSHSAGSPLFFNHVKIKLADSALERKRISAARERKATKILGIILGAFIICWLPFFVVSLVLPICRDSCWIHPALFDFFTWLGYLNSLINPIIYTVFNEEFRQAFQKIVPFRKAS", "assay": "Binding profile", "text": "as §1"}, "Dopamine D3": {"target": "Dopamine D3 (Homo sapiens, UniProt P35462)", "sequence (P35462 whole entry)": "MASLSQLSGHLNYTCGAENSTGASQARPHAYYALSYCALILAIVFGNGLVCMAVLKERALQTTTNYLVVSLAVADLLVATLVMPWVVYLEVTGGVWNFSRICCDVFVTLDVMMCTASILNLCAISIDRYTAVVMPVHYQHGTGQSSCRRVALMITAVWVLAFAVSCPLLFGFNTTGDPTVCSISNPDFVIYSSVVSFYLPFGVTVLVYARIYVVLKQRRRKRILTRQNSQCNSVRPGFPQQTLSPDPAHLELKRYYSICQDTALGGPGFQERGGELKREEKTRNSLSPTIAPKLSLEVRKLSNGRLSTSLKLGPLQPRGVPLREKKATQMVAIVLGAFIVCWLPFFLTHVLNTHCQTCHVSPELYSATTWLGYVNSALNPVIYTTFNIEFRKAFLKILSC", "assay": "Binding profile", "text": "as §1"}, "5-HT7": {"target": "5-HT7 (Homo sapiens, UniProt P34969)", "sequence (P34969 whole entry, species assumed)": "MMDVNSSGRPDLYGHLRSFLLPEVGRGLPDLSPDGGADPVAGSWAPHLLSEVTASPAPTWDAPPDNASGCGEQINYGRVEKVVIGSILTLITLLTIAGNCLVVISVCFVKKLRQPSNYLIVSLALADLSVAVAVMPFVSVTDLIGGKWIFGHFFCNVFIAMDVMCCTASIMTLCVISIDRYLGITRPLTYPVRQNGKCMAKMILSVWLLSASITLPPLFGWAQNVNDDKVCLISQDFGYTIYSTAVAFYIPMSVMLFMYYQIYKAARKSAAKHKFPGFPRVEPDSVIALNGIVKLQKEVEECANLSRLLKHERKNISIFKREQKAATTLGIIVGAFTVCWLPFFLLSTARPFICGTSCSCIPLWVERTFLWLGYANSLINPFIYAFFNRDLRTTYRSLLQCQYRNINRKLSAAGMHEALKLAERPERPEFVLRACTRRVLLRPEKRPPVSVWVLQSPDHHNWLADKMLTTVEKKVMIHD", "assay": "Binding profile", "text": "as §1"}, "Dopamine D2": {"target": "Dopamine D2 (Homo sapiens, UniProt P14416)", "sequence (P14416 whole entry)": "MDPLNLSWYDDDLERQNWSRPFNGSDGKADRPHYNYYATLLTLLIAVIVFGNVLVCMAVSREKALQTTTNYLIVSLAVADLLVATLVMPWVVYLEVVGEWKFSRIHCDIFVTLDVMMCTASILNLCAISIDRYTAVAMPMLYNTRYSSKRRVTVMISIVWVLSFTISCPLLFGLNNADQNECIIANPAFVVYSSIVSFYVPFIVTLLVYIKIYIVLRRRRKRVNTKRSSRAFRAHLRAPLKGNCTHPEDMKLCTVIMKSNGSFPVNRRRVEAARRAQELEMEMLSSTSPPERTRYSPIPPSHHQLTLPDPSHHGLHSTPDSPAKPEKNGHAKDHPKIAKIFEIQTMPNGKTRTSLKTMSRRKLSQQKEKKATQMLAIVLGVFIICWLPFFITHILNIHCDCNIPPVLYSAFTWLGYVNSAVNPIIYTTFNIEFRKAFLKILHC", "assay": "Binding profile", "text": "as §1"}, "5-HT2C": {"target": "T1, 5-HT2C (Homo sapiens, UniProt P28335)", "T1 sequence (P28335 33-458)": "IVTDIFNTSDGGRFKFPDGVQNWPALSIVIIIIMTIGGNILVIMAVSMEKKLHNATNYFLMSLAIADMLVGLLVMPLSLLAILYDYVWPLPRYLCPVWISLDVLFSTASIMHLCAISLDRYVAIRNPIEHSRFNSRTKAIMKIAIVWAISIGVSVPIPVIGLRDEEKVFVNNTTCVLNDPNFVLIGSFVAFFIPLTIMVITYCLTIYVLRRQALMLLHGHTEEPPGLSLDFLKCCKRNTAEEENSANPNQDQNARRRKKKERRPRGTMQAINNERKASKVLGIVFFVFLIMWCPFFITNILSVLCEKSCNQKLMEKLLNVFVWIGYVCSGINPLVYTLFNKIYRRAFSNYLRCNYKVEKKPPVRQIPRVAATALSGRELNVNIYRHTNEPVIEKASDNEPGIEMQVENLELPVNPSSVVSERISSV", "assay": "Binding profile", "text": "as §1"}, "5-HT2B": {"target": "5-HT2B (Homo sapiens, UniProt P41595)", "sequence (P41595 whole entry, species assumed)": "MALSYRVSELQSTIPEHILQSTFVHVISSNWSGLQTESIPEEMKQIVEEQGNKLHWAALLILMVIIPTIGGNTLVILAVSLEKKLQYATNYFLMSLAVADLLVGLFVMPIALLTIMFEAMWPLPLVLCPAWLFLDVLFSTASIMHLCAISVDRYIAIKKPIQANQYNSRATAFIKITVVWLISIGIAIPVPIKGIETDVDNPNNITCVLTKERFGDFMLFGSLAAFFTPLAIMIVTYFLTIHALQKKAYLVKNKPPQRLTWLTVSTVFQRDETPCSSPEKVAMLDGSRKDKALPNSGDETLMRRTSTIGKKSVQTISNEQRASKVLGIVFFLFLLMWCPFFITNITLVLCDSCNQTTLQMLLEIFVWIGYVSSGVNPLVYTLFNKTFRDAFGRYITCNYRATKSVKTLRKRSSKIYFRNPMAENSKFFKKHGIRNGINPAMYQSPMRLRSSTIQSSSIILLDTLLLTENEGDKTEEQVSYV", "assay": "Binding profile", "text": "as §1"}, "5-HT1A": {"target": "T2, 5-HT1A (Homo sapiens, UniProt P08908)", "T2 sequence (P08908 1-422)": "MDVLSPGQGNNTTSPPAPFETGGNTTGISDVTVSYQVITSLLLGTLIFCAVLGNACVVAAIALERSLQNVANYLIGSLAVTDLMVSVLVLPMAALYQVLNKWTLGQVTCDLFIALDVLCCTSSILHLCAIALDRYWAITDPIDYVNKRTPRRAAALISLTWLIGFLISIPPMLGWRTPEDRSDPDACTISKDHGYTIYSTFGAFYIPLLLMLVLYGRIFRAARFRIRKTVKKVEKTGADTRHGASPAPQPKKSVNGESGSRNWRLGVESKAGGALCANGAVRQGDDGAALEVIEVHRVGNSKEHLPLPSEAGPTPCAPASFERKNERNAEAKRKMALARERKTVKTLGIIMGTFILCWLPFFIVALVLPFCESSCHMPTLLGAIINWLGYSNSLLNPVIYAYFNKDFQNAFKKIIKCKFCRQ", "assay": "Binding profile", "text": "as §1"}, "α1B adrenoreceptor": {"target": "T3, α1B adrenoreceptor (Homo sapiens, UniProt P35368)", "T3 sequence (P35368 1-520)": "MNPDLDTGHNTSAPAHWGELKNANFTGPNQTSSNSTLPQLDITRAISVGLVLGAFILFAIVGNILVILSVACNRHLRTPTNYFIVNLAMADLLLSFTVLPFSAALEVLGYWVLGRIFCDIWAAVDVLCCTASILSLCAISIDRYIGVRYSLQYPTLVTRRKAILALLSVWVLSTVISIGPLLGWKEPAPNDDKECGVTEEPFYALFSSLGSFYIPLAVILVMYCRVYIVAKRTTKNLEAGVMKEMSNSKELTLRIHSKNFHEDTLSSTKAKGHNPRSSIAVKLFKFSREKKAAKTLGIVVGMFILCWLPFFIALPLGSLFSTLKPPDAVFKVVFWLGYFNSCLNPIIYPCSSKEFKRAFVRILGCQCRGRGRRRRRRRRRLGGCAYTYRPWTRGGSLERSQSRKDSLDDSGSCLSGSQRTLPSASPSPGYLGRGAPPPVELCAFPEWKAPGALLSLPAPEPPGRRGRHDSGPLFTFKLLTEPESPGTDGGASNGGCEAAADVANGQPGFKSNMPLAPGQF", "assay": "Binding profile", "text": "as §1"}, "5-HT6 receptors [1]": {"tested_on": "5-HT6 receptors", "assay": "PET imaging, saturation of 5-HT6 receptors in the brain", "experimental": "Yorkshire/Danish Landrace porcines (- 40 Kg; n=4) were housed singly in thermostatically controlled (20 °C) and naturally illuminated stalls. The pigs were provided with Soavl® chow (DLG, Denmark) and water ad libitum by trough. Animals were fasted for 24 hours prior to PET examination, with free access to water during this interval. Animals were anaesthetised by induction with ketamine and midazolam (both intramuscular and intravenous (i.v.)) and maintained in deep anaesthesia using isoflurane (1 - 2 %; Abbott, Denmark). The left femoral artery and vein of each animal were surgically cannulated using catheters (Avanti® size 4F-7F). The femoral artery for blood sampling and blood pressure (BP) recordings and the femoral vein for administration of radiolabelled and non-labelled agents. Animals were placed supine in a Siemens ECAT EXACT HR tomograph, with the head immobilised in a custom-made holding device. During the study, blood pH, pCO2 and pO2 levels were monitored and maintained within the normal physiological range. In addition, BP and heart rate were recorded throughout the study. At the end of each study day, the animal was terminated via an intravenous dose of sodium pentobarbital (20 ml). [^11C]GSK215083 was administered intravenously in the femoral vein as a 1 minute bolus injection. PET scanning and arterial blood sampling was commenced upon start of the radioligand administration.\nFour sequential high specific activity iv radioligand ([^11C]GSK215083) administrations were performed in same animal, same day. Following a baseline scan, [^11C] GSK215083 was coadministered with escalating dose of unlabelled GSK215083 (0.005, 0.05 and 0.5mg/kg). [^15O]CO and [^15O]H2O were administered pre and post administration of GSK215083 to monitor and to correct for changes in cerebral blood volume and changes in cerebral blood flow."}, "[2]": {"target": "T4, human recombinant 5-HT6 receptor (Homo sapiens, UniProt P50406)", "T4 construct": "expressed in transfected cells; host or cells: HeLa", "T4 sequence (P50406 whole entry)": "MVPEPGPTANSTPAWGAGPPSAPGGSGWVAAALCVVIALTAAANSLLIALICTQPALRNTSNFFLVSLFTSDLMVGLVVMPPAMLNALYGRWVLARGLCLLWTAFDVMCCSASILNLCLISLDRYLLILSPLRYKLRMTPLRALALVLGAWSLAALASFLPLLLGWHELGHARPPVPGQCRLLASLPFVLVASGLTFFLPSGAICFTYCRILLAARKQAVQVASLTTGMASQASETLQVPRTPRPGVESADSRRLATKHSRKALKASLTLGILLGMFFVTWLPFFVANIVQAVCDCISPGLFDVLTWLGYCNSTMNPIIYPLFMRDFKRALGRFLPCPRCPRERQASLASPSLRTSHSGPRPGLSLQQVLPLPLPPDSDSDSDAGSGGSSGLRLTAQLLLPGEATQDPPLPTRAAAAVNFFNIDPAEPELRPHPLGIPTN", "assay": "Radioligand binding, competition studies with [^3H]LSD", "text": "as §1"}, "5-HT2A": {"target": "5-HT2A (Homo sapiens, UniProt P28223)", "sequence (P28223 whole entry, species assumed)": "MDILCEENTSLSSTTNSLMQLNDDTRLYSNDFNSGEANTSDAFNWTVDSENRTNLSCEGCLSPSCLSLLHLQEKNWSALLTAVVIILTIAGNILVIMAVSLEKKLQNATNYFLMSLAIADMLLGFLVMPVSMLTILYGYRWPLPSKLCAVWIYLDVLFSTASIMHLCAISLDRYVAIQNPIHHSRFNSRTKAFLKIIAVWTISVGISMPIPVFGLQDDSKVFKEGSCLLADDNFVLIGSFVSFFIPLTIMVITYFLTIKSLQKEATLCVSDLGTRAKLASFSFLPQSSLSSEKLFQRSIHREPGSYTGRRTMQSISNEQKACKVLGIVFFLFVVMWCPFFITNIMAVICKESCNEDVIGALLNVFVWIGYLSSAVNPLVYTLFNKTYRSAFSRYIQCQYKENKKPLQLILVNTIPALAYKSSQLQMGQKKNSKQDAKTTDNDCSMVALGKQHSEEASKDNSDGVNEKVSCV", "assay": "Binding profile"}, "5-HT6 receptors [3]": {"tested_on": "5-HT6 receptors", "conditions": "PET", "experimental": "Yorkshire/Danish Landrace porcines (- 40 Kg; n=4) were housed singly in thermostatically controlled (20 °C) and naturally illuminated stalls. The pigs were provided with Soavl® chow (DLG, Denmark) and water ad libitum by trough. Animals were fasted for 24 hours prior to PET examination, with free access to water during this interval. Animals were anaesthetised by induction with ketamine and midazolam (both intramuscular and intravenous (i.v.)) and maintained in deep anaesthesia using isoflurane (1 - 2 %; Abbott, Denmark). The left femoral artery and vein of each animal were surgically cannulated using catheters (Avanti® size 4F-7F). The femoral artery for blood sampling and blood pressure (BP) recordings and the femoral vein for administration of radiolabelled and non-labelled agents. Animals were placed supine in a Siemens ECAT EXACT HR tomograph, with the head immobilised in a custom-made holding device. During the study, blood pH, pCO2 and pO2 levels were monitored and maintained within the normal physiological range. In addition, BP and heart rate were recorded throughout the study. At the end of each study day, the animal was terminated via an intravenous dose of sodium pentobarbital (20 ml). […] PET scanning and arterial blood sampling was commenced upon start of the radioligand administration."}, "[4]": {"conditions": "60min post administration of 0.5mg/kg GSK215083 with [^11C]GSK215083"}, "[5]": {"conditions": "60 min post coinjection of [^11C]GSK215083 with 0.005mg/kg of GSK215083"}, "[6]": {"conditions": "[^11C]GSK215083 coadministered with 0.05mg/kg of GSK215083"}, "[7]": {"conditions": "baseline scan, 60 min post injection of [^11C]GSK215083"}},
  "data": [
    {"smiles": "CN1CCN(c2cccc3cc(S(=O)(=O)c4cccc(F)c4)cnc23)CC1", "note": "[GSK215083, 3-[(3-fluorophenyl)sulfonyl]-8-(4-methyl-1-piperazinyl)quinoline]", "values": [
      {"measurement": "Ki", "setting": "5-HT1B", "value": 105, "unit": "nM"},
      {"measurement": "Ki", "setting": "5-HT1D", "value": 69.2, "unit": "nM"},
      {"measurement": "Ki", "setting": "Dopamine D3", "value": 977, "unit": "nM"},
      {"measurement": "Ki", "setting": "5-HT7", "value": "> 10000", "unit": "nM"},
      {"measurement": "Ki", "setting": "Dopamine D2", "value": 912, "unit": "nM"},
      {"measurement": "Ki", "setting": "5-HT2C", "value": 17.8, "unit": "nM"},
      {"measurement": "Ki", "setting": "5-HT2B", "value": 9.12, "unit": "nM"},
      {"measurement": "Ki", "setting": "5-HT1A", "value": "> 7080", "unit": "nM"},
      {"measurement": "Ki", "setting": "α1B adrenoreceptor", "value": 977, "unit": "nM"},
      {"measurement": "cortex to cerebellum ratio", "setting": "5-HT6 receptors [1]; [4]", "value": "1 to 1"},
      {"measurement": "striatum to cerebellum ratio", "setting": "5-HT6 receptors [1]; [4]", "value": "1.1 to 1"},
      {"measurement": "cortex to cerebellum ratio", "setting": "5-HT6 receptors [1]; [5]", "value": "1.2 to 1"},
      {"measurement": "striatum to cerebellum ratio", "setting": "5-HT6 receptors [1]; [5]", "value": "1.5 to 1"},
      {"measurement": "cortex to cerebellum ratio", "setting": "5-HT6 receptors [1]; [6]", "value": "1.1 to 1"},
      {"measurement": "striatum to cerebellum ratio", "setting": "5-HT6 receptors [1]; [6]", "value": "1.3 to 1"},
      {"measurement": "Ki", "setting": "[2]; human recombinant 5-HT6 receptor stably expressed in the HeLa cell line, [^3H]LSD as radioligand", "value": 0.151, "unit": "nM"},
      {"measurement": "selectivity for the human 5-HT6 receptor", "setting": "[2]; over other receptors screened to date", "value": "selective for the human 5-HT6 receptor over other receptors screened to date"},
      {"measurement": "Ki", "setting": "5-HT2A", "value": 0.724, "unit": "nM"}
    ]},
    {"smiles": "[11CH3]N1CCN(c2cccc3cc(S(=O)(=O)c4cccc(F)c4)cnc23)CC1", "note": "[[^11C]GSK215083, [^11C-N-methyl]-3-(3-Fluoro-benzenesulfonyl)-8-(4-methyl-piperazin-1-yl)-quinoline]", "values": [
      {"measurement": "cortex to cerebellum ratio", "setting": "5-HT6 receptors [1]; [7]", "value": "1.5 to 1"},
      {"measurement": "striatum to cerebellum ratio", "setting": "5-HT6 receptors [1]; [7]", "value": "2 to 1"},
      {"measurement": "concentration in cerebellum", "setting": "5-HT6 receptors [3]; pig brain", "value": "low"},
      {"measurement": "rank order of regional brain concentrations", "setting": "5-HT6 receptors [3]; pig brain", "value": "striatum>cortical regions>cerebellum"},
      {"measurement": "time of peak regional tissue concentrations post injection", "setting": "5-HT6 receptors [3]; pig brain, intravenous 1 minute bolus", "value": "approximately 20 min"},
      {"measurement": "brain entry", "setting": "5-HT6 receptors [3]; pig, intravenous 1 minute bolus", "value": "readily enters the brain"}
    ]}
  ]
}
